Drawing on PubChem BioAssay (NCI), this text covers GI50 and TGI for twelve compounds.

“And” between values parts separate entries of the source, which are not always exact repeats. Equal entries are not always repeated.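 Five concentrations, 48 hours, 96-well plates. Here, GI50 denotes the concentration required for 50% inhibition of growth. TGI: total growth inhibition.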 A value given as a limit tells only on which side of the number the result lay.

Test systems include SNB-19 CNS; PC-3 prostate; SW-620 colon; SN12C renal; OVCAR-5 ovarian; OVCAR-3 ovarian; COLO 205 colon; SF-539 CNS; HOP-92 NSCLC; UACC-62 melanoma.
Experiment in all cases: NCI tumour cell line growth inhibition, 48 h

For the compound `COC(=O)/C=C/c1cn(C(C)=O)c2ccc(Br)cc12`, the GI50 in the experiment with SNB-19 CNS is 37.2 µM; in the experiment with PC-3 prostate it was 28 µM; in the experiment with SW-620 colon, 35.6 µM; in the experiment with SN12C renal, 31.6 µM; with OVCAR-5 ovarian, 31 µM; with OVCAR-3 ovarian it was 23.9 µM. Also, the GI50 in the experiment on COLO 205 colon was 24.8 µM; in the experiment with SF-539 CNS it was 29.9 µM; in the experiment with HOP-92 NSCLC, 14.7 µM; with UACC-62 melanoma, 30.7 µM. In addition, the TGI with SNB-19 CNS was greater than 100 µM; in the experiment with PC-3 prostate, greater than 100 µM; with SW-620 colon, greater than 100 µM; in the experiment on SN12C renal, greater than 100 µM; with OVCAR-5 ovarian, greater than 83.3 µM; in the experiment on OVCAR-3 ovarian it was greater than 100 µM. The TGI was greater than 85 µM in the experiment with COLO 205 colon, greater than 100 µM in the experiment with SF-539 CNS, greater than 60.7 µM in the experiment on HOP-92 NSCLC and greater than 100 µM in the experiment on UACC-62 melanoma.

For `Nc1c(C(=O)c2ccc(CCCN3CCOCC3)cc2)cnn1-c1ccc(F)cc1`, the GI50 in the experiment with SNB-19 CNS was greater than 25 µM; in the experiment on PC-3 prostate, greater than 25 µM; with SW-620 colon it was greater than 25 µM; with SN12C renal, greater than 25 µM; in the experiment with OVCAR-5 ovarian it was greater than 25 µM; in the experiment on OVCAR-3 ovarian, 24.3 µM. Further, the GI50 in the experiment on COLO 205 colon is greater than 25 µM; in the experiment on SF-539 CNS it was greater than 25 µM; in the experiment with HOP-92 NSCLC, 3.22 µM; in the experiment with UACC-62 melanoma, greater than 25 µM. Further, the TGI with SNB-19 CNS, in the experiment on PC-3 prostate, in the experiment with SW-620 colon, in the experiment with SN12C renal, in the experiment with OVCAR-5 ovarian and in the experiment on OVCAR-3 ovarian was greater than 25 µM throughout. The TGI in the experiment with COLO 205 colon, in the experiment on SF-539 CNS, in the experiment with HOP-92 NSCLC and with UACC-62 melanoma was greater than 25 µM throughout.

On to `COc1cc(O)c2c(c1)C(=O)c1cc3c(c(O)c1C2=O)C(OC1OC(C)C(O)C(O)C1OC)C(OC)C(C)(O)C3=O` (stereo not given), for which the GI50 with SNB-19 CNS was 2.42 µM; in the experiment on PC-3 prostate, 2.57 µM; with SW-620 colon it was 2.3 µM; with OVCAR-5 ovarian, 2.18 µM; in the experiment on OVCAR-3 ovarian it was 1.38 µM; in the experiment with COLO 205 colon it was 1.31 µM. For the same compound, the GI50 is 2 µM with HOP-92 NSCLC and 1.68 µM in the experiment with UACC-62 melanoma. Also, the TGI with SNB-19 CNS is 8.9 µM and 15.5 µM; with PC-3 prostate, 12.3 µM; with SW-620 colon, 8.38 µM and 5.41 µM; in the experiment on SN12C renal it was 7.18 µM and 7.44 µM; in the experiment with OVCAR-5 ovarian it was 8.48 µM and 9.24 µM; in the experiment on OVCAR-3 ovarian it was 5.83 µM and 2.04 µM. Besides, the TGI with COLO 205 colon is 5.2 µM and 3.25 µM; in the experiment with SF-539 CNS, 4.52 µM and 5.99 µM; in the experiment with HOP-92 NSCLC it was 8.49 µM and 1.81 µM; in the experiment on UACC-62 melanoma it was 3.16 µM and 4.1 µM.

Regarding `N#CC1=C(N)NC(=S)NC12Nc1ccccc1N2`, the GI50 is 90.1 µM with SNB-19 CNS; 28.5 µM in the experiment on PC-3 prostate; 59.5 µM with SW-620 colon; 55.5 µM with SN12C renal; 46.8 µM with OVCAR-5 ovarian; 22 µM in the experiment on OVCAR-3 ovarian. The GI50 with COLO 205 colon was 32.6 µM; with SF-539 CNS, 42.4 µM; in the experiment on UACC-62 melanoma, 12.5 µM. Further, the TGI with SNB-19 CNS, in the experiment with PC-3 prostate, with SW-620 colon, in the experiment with SN12C renal, with OVCAR-5 ovarian and with OVCAR-3 ovarian was greater than 100 µM each time. Further, the TGI with COLO 205 colon was greater than 100 µM; in the experiment on SF-539 CNS, greater than 100 µM; in the experiment with UACC-62 melanoma, 57.5 µM.

In the case of `Cc1ccc(-c2nc(N3CCCNCC3)c3oc(-c4ccccc4)nc3n2)cc1`, the GI50 is 1.82 µM in the experiment with SNB-19 CNS; 1.57 µM in the experiment on PC-3 prostate; 1.68 µM with SW-620 colon; 1.69 µM in the experiment on SN12C renal; 1.9 µM with OVCAR-5 ovarian; 1.83 µM in the experiment with OVCAR-3 ovarian. In addition, the GI50 in the experiment on COLO 205 colon is 1.89 µM; with SF-539 CNS it was 1.79 µM; with UACC-62 melanoma it was 1.71 µM. The TGI was 3.45 µM with SNB-19 CNS; 3 µM in the experiment with PC-3 prostate; 3.21 µM in the experiment with SW-620 colon; 3.21 µM in the experiment on SN12C renal; 3.38 µM in the experiment with OVCAR-5 ovarian; 3.38 µM in the experiment on OVCAR-3 ovarian. Also, the results for the TGI in the experiment on COLO 205 colon, in the experiment on SF-539 CNS and in the experiment on UACC-62 melanoma were 3.5 µM, 3.26 µM and 3.3 µM, respectively.

Take `O=c1c2c3c(sc2nc(N/N=C/c2ccc(Br)cc2)n1Cc1ccccc1)CCCC3`: the GI50 with SNB-19 CNS was 41.8 µM; in the experiment on PC-3 prostate, 6.64 µM; with SW-620 colon it was 46.2 µM; in the experiment with OVCAR-5 ovarian it was greater than 100 µM; in the experiment on OVCAR-3 ovarian it was 32.5 µM; with COLO 205 colon, 5.88 µM. In addition, the GI50 with SF-539 CNS was 10.8 µM; in the experiment on HOP-92 NSCLC, 8.63 µM; with UACC-62 melanoma it was greater than 100 µM. Moreover, the TGI in the experiment with SNB-19 CNS, with PC-3 prostate, with SW-620 colon, in the experiment on OVCAR-5 ovarian, in the experiment on OVCAR-3 ovarian and in the experiment with COLO 205 colon was greater than 100 µM throughout. Besides, the TGI with SF-539 CNS, in the experiment on HOP-92 NSCLC and with UACC-62 melanoma was greater than 100 µM throughout.

For `COc1ccc(-c2c(-c3cc(OC)c(OC)c(OC)c3)noc2N)cc1`, the GI50 is 0.0342 µM in the experiment with SNB-19 CNS; less than 0.0119 µM in the experiment on PC-3 prostate; less than 0.01 µM in the experiment with SW-620 colon; 0.0374 µM in the experiment with SN12C renal; 0.0441 µM in the experiment on OVCAR-5 ovarian; less than 0.01 µM in the experiment on OVCAR-3 ovarian. The GI50 was less than 0.0123 µM in the experiment with COLO 205 colon, less than 0.01 µM in the experiment with HOP-92 NSCLC and less than 0.01 µM in the experiment on UACC-62 melanoma. Besides, the TGI is greater than 100 µM in the experiment on SNB-19 CNS; greater than 100 µM with PC-3 prostate; greater than 100 µM in the experiment with SW-620 colon; greater than 69.8 µM with SN12C renal; greater than 70 µM with OVCAR-5 ovarian; 0.0208 µM in the experiment on OVCAR-3 ovarian. Also, the TGI was 0.0551 µM in the experiment on COLO 205 colon, greater than 100 µM in the experiment on HOP-92 NSCLC and greater than 65.2 µM in the experiment with UACC-62 melanoma.

On to `COc1ccc(-c2nc(N3CCN(C(=O)C4CCCCC4)CC3)c3c4c(sc3n2)CCCC4)cc1`, for which the GI50 was 25.7 µM in the experiment on SNB-19 CNS; 26.1 µM in the experiment with PC-3 prostate; greater than 100 µM in the experiment with SW-620 colon; greater than 100 µM in the experiment with SN12C renal; greater than 100 µM in the experiment on OVCAR-5 ovarian; greater than 100 µM in the experiment on OVCAR-3 ovarian. The GI50 in the experiment with COLO 205 colon is greater than 100 µM; with SF-539 CNS, 39.4 µM; in the experiment with UACC-62 melanoma, 40.8 µM. Besides, the TGI in the experiment on SNB-19 CNS, in the experiment on PC-3 prostate, in the experiment on SW-620 colon, with SN12C renal, in the experiment with OVCAR-5 ovarian and in the experiment with OVCAR-3 ovarian was greater than 100 µM in each case. The TGI in the experiment on COLO 205 colon, in the experiment on SF-539 CNS and in the experiment on UACC-62 melanoma was greater than 100 µM throughout.

For `Cc1cn2c(/C=N/N=C(N)N)c(-c3cccnc3)nc2s1`, the GI50 in the experiment on SNB-19 CNS was 12.7 µM; in the experiment on PC-3 prostate, 6.95 µM; in the experiment with SW-620 colon it was 11.5 µM; in the experiment on OVCAR-5 ovarian, 15.2 µM; in the experiment on OVCAR-3 ovarian, 10.3 µM; in the experiment on COLO 205 colon, 11.6 µM. Besides, the GI50 with HOP-92 NSCLC is 16.8 µM; in the experiment on UACC-62 melanoma it was 11 µM. The TGI in the experiment on SNB-19 CNS came to 28.9 µM; with PC-3 prostate it was 24.7 µM; in the experiment on SW-620 colon it was 35.2 µM; in the experiment with OVCAR-5 ovarian, 28.5 µM; with OVCAR-3 ovarian it was 22.9 µM; in the experiment on COLO 205 colon it was 27.5 µM. Besides, the values for the TGI in the experiment on HOP-92 NSCLC and in the experiment on UACC-62 melanoma were 33.4 µM and 23.6 µM, respectively.

For the compound `C=C(C)[C@@H]1CC[C@]2(CO)CC[C@]3(C)[C@H](CC[C@@H]4[C@@]5(C)CCC(NCCc6ccc(O)cc6)C(C)(C)[C@@H]5CC[C@]43C)[C@@H]12` (stereo not given in full), the GI50 was 1.3 µM in the experiment on PC-3 prostate; 1.41 µM in the experiment on SW-620 colon; 1.67 µM in the experiment on SN12C renal; 1.59 µM in the experiment on OVCAR-5 ovarian; 1.69 µM with OVCAR-3 ovarian; 1.12 µM in the experiment with COLO 205 colon. Moreover, the GI50 in the experiment on SF-539 CNS is 1.63 µM; in the experiment on HOP-92 NSCLC, 1.46 µM; in the experiment with UACC-62 melanoma, 1.63 µM. In addition, the TGI was 2.64 µM in the experiment on PC-3 prostate; 2.89 µM with SW-620 colon; 3.19 µM in the experiment on SN12C renal; 2.96 µM with OVCAR-5 ovarian; 3.21 µM in the experiment with OVCAR-3 ovarian; 2.68 µM in the experiment with COLO 205 colon. For the same compound, the TGI in the experiment on SF-539 CNS was 3.04 µM; in the experiment on HOP-92 NSCLC it was 2.95 µM; in the experiment with UACC-62 melanoma it was 3.09 µM.

With `CN(C)CCOC(c1ccccc1)c1ccccc1`, the TGI was 44.4 µM and > 100 µM in the experiment on PC-3 prostate; 51.8 µM and > 100 µM in the experiment on SW-620 colon; 50.2 µM and > 100 µM in the experiment with SN12C renal; 52.4 µM and > 100 µM in the experiment on OVCAR-5 ovarian; 51.1 µM and > 100 µM with OVCAR-3 ovarian; 28.3 µM and > 100 µM in the experiment with COLO 205 colon. In addition, the TGI stood at 85.7 µM with HOP-92 NSCLC and 48.4 µM with UACC-62 melanoma. Moreover, the GI50 in the experiment with SW-620 colon was 35.1 µM; with SN12C renal it was 34.6 µM; with OVCAR-5 ovarian it was 36.7 µM; in the experiment with OVCAR-3 ovarian, 36 µM; in the experiment with COLO 205 colon it was 14 µM; in the experiment with UACC-62 melanoma it was 32.7 µM.

`N#C/C(=C/Sc1ccccc1)C(=O)O`: the TGI was greater than 100 µM in the experiment on SNB-19 CNS; greater than 100 µM in the experiment with SW-620 colon; 57.5 µM in the experiment with SN12C renal; 74.6 µM with OVCAR-5 ovarian; 78.5 µM in the experiment on OVCAR-3 ovarian; 47.5 µM in the experiment with COLO 205 colon. Also, the TGI is 35.2 µM in the experiment on SF-539 CNS, greater than 100 µM in the experiment with HOP-92 NSCLC and greater than 100 µM in the experiment on UACC-62 melanoma.
